Test results from patent US9856250B2, “Substituted tropane derivatives” (TOA EIYO LTD., priority 2014, dated 2018).
Read-outs that look alike come from different tables or passages of the source.

Target: human T-type calcium channels (human Cav3.2) (Homo sapiens (Human), UniProt O95180)
Assay: Antagonistic activity against T-type calcium channels (Cav3.2), Fura2 intracellular calcium assay in HEK293 cells
Type: cell-based
Procedure: For representative compounds of the present invention, the antagonistic activity against T-type calcium channels (Cav3.2) was examined by the Test Examples described below. For the respective tests, human embryo kidney cells (HEK293 cells) in which human T-type calcium channels (human Cav3.2) were stably expressed were used.
The HEK293 cells having human Cav3.2 stably expressed therein were cultured at 37° C. in Alpha-MEM, to which 10% (v/v) fetal bovine serum (FBS), penicillin (100 U/mL), streptomycin (100 μg/mL), and G418 ([…]) had been added. The cells were suspended in the culture liquid and were inoculated onto a 96-well plate. Subsequently, the cells were cultured for 48 hours. The culture liquid was removed, and the liquid was changed to S-MEM, to which 5% (v/v) FBS, calcium chloride (0.5 mmol/L), L-glutamine (2 mmol/L), L-alanine (8.9 ng/mL), L-asparagine (13.2 ng/mL), L-aspartic acid (1.33 ng/mL), L-glutamic acid (14.7 ng/mL), glycine (7.5 ng/mL), L-proline (11.5 ng/mL, L-serine (10.5 ng/mL), penicillin (100 U/mL), and streptomycin (100 μg/mL) had been added. The cells were cultured for another 24 hours. The culture liquid was removed again, and the cells were washed with an assay buffer (140 mmol/L sodium chloride, 5 mmol/L potassium chloride, 0.5 mmol/L magnesium chloride, 0.5 mmol/L calcium chloride, 10 mmol/L glucose, 0.4 mmol/L magnesium sulfate, 10 mmol/L HEPES, and […] sulfinpyrazone, pH 7.4) that had been kept warm at 37° C. Subsequently, an assay buffer prepared by dissolving Fura2-AM, which is a fluorescent Ca^2+ indicator, to a concentration of 5 μM, was added to the cells, and the system was incubated for 30 minutes at 37° C. The assay buffer having Fura2 dissolved therein was removed, and the cells were washed with the assay buffer. Subsequently, an assay buffer prepared by adding a test compound was added to the cells, and the system was incubated for 15 minutes. The plate was mounted on a fluorescence analyzer (FLEX STATION II, Molecular Devices, LLC), and the baseline was measured for 20 seconds. Subsequently, any change in the intracellular calcium concentration that was induced when an assay buffer prepared by adding 100 mmol/L calcium chloride was added to the cells, was measured (excited at 340 nm or 380 nm, and detected at 510 nm). The fluorescence intensity ratios obtainable at the respective wavelengths were calculated.
Meanwhile, the test compound solution was prepared by dissolving each test compound in DMSO to a concentration of 10 mmol/L, and then adjusting the concentration with the assay buffer so as to obtain the set concentration. For the control solution, DMSO was used instead of a test compound.
The inhibitory activity level (%) of a test compound was calculated by subtracting the average value of the fluorescence intensity ratio for a period of 0 to 20 seconds after initiation of measurement, from the average value of the fluorescence intensity ratio for a period of 45 to 50 seconds after initiation of measurement, taking the value obtained using the control solution as the maximum activity of Cav3.2, and comparing this value with the activity in the presence of the test compound.
Calculation of IC50 Value:
The inhibitory activity of each test compound was measured at concentrations of […], and the IC50 value was calculated using the curve fitting formula (Model 08: sigmoidal inhibition curve) of ASSAY EXPLORER (Symyx Technologies, Inc.).
Average of RFU value obtained for 25 to 30 seconds after the addition of a […] assay buffer after treatment with the control solution (for 45 to 50 seconds after the initiation of measurement). The RFU in the formula represents the Relative Fluorescence Unit.

[1] = HEK293 cells stably expressing human Cav3.2, Fura2 fluorescence ratio after calcium chloride addition, read-out: IC50

Sequence of human T-type calcium channels (human Cav3.2) (O95180 whole entry): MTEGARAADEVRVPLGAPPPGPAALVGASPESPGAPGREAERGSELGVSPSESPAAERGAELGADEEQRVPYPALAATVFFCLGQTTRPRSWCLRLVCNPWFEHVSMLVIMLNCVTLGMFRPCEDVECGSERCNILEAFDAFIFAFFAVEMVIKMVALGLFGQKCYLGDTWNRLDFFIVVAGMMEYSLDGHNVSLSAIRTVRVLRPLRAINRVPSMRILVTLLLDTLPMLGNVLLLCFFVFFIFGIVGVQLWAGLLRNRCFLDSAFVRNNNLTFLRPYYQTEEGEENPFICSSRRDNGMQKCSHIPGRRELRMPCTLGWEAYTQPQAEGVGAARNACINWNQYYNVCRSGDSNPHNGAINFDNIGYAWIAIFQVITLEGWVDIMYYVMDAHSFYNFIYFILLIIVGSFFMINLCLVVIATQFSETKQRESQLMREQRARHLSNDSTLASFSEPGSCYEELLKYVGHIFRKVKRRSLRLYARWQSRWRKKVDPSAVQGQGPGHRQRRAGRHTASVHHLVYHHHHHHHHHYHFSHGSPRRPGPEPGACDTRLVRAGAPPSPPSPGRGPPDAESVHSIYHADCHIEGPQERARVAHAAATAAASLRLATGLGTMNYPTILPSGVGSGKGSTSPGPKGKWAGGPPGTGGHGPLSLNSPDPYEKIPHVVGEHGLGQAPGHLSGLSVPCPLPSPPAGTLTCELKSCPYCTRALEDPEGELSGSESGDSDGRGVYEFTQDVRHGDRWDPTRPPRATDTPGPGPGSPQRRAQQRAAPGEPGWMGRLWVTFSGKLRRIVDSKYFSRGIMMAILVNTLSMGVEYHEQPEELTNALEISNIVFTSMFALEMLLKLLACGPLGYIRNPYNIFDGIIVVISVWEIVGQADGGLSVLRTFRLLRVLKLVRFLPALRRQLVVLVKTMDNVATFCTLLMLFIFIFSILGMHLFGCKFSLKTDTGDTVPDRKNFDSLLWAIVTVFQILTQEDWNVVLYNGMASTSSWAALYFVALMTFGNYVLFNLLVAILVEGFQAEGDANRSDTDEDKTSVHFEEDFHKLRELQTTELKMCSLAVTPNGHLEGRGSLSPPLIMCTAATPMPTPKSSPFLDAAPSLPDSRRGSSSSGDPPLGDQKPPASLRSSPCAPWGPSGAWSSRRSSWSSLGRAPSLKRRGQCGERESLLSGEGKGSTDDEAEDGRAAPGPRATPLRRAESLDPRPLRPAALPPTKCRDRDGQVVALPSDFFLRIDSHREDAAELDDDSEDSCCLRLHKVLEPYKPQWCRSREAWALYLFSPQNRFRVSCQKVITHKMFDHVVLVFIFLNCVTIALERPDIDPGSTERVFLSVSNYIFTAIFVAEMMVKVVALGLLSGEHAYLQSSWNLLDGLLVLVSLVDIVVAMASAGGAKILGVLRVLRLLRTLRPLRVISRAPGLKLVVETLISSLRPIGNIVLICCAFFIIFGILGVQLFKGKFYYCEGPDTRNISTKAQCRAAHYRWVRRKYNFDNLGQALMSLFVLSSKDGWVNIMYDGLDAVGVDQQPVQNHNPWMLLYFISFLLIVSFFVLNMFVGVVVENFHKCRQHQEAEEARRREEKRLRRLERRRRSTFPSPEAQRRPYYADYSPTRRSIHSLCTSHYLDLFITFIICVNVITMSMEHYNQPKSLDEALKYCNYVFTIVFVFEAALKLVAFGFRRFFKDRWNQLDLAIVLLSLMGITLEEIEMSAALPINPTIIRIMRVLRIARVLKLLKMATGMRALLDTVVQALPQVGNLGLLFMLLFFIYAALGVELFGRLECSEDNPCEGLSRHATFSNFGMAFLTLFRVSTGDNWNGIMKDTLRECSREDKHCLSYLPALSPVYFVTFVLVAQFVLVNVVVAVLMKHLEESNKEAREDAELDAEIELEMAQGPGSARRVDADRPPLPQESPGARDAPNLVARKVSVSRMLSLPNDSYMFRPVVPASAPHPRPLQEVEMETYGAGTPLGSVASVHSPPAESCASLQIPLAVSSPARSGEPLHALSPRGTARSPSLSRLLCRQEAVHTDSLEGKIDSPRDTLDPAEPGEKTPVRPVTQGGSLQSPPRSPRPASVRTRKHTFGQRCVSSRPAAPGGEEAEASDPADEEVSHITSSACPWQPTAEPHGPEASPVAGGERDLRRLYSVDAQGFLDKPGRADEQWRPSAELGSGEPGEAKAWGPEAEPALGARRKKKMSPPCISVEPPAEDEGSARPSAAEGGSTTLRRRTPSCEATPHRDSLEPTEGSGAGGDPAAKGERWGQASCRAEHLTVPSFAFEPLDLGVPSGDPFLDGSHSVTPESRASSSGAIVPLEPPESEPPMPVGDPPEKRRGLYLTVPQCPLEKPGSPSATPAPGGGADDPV

| Compound | IC50 [1] [nM] | IC50 [nM] |
| --- | --- | --- |
| CC(C)(C)CNC(=O)C[C@H]1C[C@H]2CC[C@@H](C1)N2CC(=O)NC(C)(C)C [Example 127, 2-[(endo)-8-(tert-Butylcarbamoyl)methyl-8-azabicyclo[3.2.1]octan-3-yl]-N-(2,2-dimethylpropyl) acetamide] | 73 | – |
| Cc1oc2ccccc2c1C(=O)NC[C@@H]1C[C@H]2CC[C@@H](C1)N2CC(=O)NC(C)(C)C [Example 85] | – | 15 |
| CC(C)(C)NC(=O)CN1[C@@H]2CC[C@H]1C[C@H](CC(=O)Nc1cccc(Cl)c1)C2 [Example 1, 2-[(exo)-8-(tert-Butylcarbamoyl)methyl-8-azabicyclo[3.2.1]octan-3-yl]-N-(3-chlorophenyl)acetamide] | 68 | – |
| Cc1cc(C(=O)NC[C@@H]2C[C@H]3CC[C@@H](C2)N3CC(=O)NC(C)(C)C)n(C)n1 [Example 23] | 203 | – |
| CC(C)(C)NC(=O)CN1[C@@H]2CC[C@H]1C[C@H](CNC(=O)C(C)(C)Oc1cccc(Cl)c1)C2 [Example 31] | – | 73 |
| CC(C)(C)NC(=O)CN1[C@@H]2CC[C@H]1C[C@H](CC(=O)NC13CC4CC(CC(C4)C1)C3)C2 [Example 4, N-(Adamantan-1-yl)-2-[(exo)-8-(tert-butylcarbamoyl)methyl-8-azabicyclo[3.2.1]octan-3-yl]acetamide] | 82 | – |
| CC(C)(C)NC(=O)CN1[C@@H]2CC[C@H]1C[C@H](CNC(=O)c1coc3ccccc13)C2 [Example 11, N-[(exo)-8-(tert-Butylcarbamoyl)methyl-8-azabicyclo[3.2.1]octan-3-yl]methylbenzofuran-3-carboxamide] | 3 | – |
| CC(C)(C)NC(=O)CN1[C@@H]2CC[C@H]1C[C@H](CNC(=O)C(C)(C)Oc1ccccc1)C2 [Example 28] | 65 | – |
| CC(C)(C)NC(=O)CN1[C@@H]2CC[C@H]1C[C@@H](CC(=O)NC13CC4CC(CC(C4)C1)C3)C2 [Example 129, N-(Adamantan-1-yl)-2-[(endo)-8-(tert-butylcarbamoyl)methyl-8-azabicyclo[3.2.1]octan-3-yl]acetamide] | 66 | – |
| CCc1oc2ccccc2c1C(=O)NC[C@@H]1C[C@H]2CC[C@@H](C1)N2CC(=O)NC(C)(C)C [Example 84] | – | 10 |
| Cc1cccc2[nH]c(C[C@@H]3C[C@H]4CC[C@@H](C3)N4CC(=O)NC(C)(C)C)nc12 [Example 120, N-tert-Butyl-2-[(exo)-3-(4-methyl-1H-benzimidazol-2-yl)methyl-8-azabicyclo[3.2.1]octan-8-yl]acetamide] | 59 | – |
| COc1cc(F)cc(NC(=O)C[C@@H]2C[C@H]3CC[C@@H](C2)N3CC(=O)NC(C)(C)C)c1 [Example 3] | 69 | – |
| Cc1oc2c(c1C(=O)NC[C@@H]1C[C@H]3CC[C@@H](C1)N3CC(=O)NC1(C(F)(F)F)CC1)CCCC2 [Example 95] | – | 88 |
| Cc1cccc2[nH]c(C[C@H]3C[C@H]4CC[C@@H](C3)N4CC(=O)NC(C)(C)C)nc12 [Example 147] | 83 | – |
| CC(C)(C)NC(=O)CN1[C@@H]2CC[C@H]1C[C@H](CNC(=O)c1cc(F)cc(C#N)c1)C2 [Example 79] | – | 45 |
| CC(C)(C)NC(=O)CN1[C@@H]2CC[C@H]1C[C@@H](CC(=O)NC13CC4CC(CC1C4)C3)C2 [Example 131] | 49 | – |
| Cc1ccc(C(=O)NC[C@@H]2C[C@H]3CC[C@@H](C2)N3CC(=O)NC(C)(C)C)s1 [Example 81] | 93 | – |
| COCC(C)(C)NC(=O)CN1[C@@H]2CC[C@H]1C[C@H](CNC(=O)c1cc(F)cc(Cl)c1)C2 [Example 104, 3-Chloro-5-fluoro-N-{(exo)-8-[(2-methoxy-1,1-dimethylethyl)carbamoyl]methyl-8-azabicyclo[3.2.1]octan-3-yl}methylbenzamide] | 13 | – |
| CC(C)(C)CCC(=O)NC[C@@H]1C[C@H]2CC[C@@H](C1)N2CC(=O)NC(C)(C)C [Example 71] | 64 | – |
| CC(C)(C)NC(=O)CN1[C@@H]2CC[C@H]1C[C@H](CNC(=O)C1C(C)(C)C1(C)C)C2 [Example 67] | 42 | – |
| COc1cc(C)cc(C(=O)NC[C@@H]2C[C@H]3CC[C@@H](C2)N3CC(=O)NC(C)(C)C)c1 [Example 72] | 55 | – |
| Cn1cc(C(=O)NC[C@@H]2C[C@H]3CC[C@@H](C2)N3CC(=O)NC(C)(C)C)c2ccccc21 [Example 24] | – | 78 |

| Compound | IC50 [1] [nM] | IC50 [nM] |
| --- | --- | --- |
| CC(C)(C)NC(=O)CN1[C@@H]2CC[C@H]1C[C@@H](CNC(=O)C13CC4CC(CC(C4)C1)C3)C2 [Example 144, N-[(endo)-8-(tert-Butylcarbamoyl)methyl-8-azabicyclo[3.2.1]octan-3-yl]methyladamantane-1-carboxamide] | 44 | – |
| COc1cc(Cl)cc(C(=O)NC[C@@H]2C[C@H]3CC[C@@H](C2)N3CC(=O)NC(C)(C)C)c1 [Example 53] | 49 | – |
| Cn1cc(C(=O)NC[C@@H]2C[C@H]3CC[C@@H](C2)N3CC(=O)NC2(C(F)(F)F)CC2)c2ccccc21 [Example 45] | – | 103 |
| CC(C)(C)NC(=O)CN1[C@@H]2CC[C@H]1C[C@H](CNC(=O)C13CC4CC(CC(C4)C1)C3)C2 [Example 65] | 99 | – |
| CC(C)(C)NC(=O)CN1[C@@H]2CC[C@H]1C[C@H](CNC(=O)c1cccc(F)c1)C2 [Example 113] | – | 39 |
| O=C(CN1[C@@H]2CC[C@H]1C[C@H](CNC(=O)C13CC4CC(CC1C4)C3)C2)NC1(CO)CCCC1 [Example 109] | – | 94 |
| CC(C)(C)NC(=O)CN1[C@@H]2CC[C@H]1C[C@H](CNC(=O)c1csc3c1CCCC3)C2 [Example 16] | 47 | – |
| CC(C)(C)NC(=O)CN1[C@@H]2CC[C@H]1C[C@H](CNC(=O)c1ccc3c(c1)CCCO3)C2 [Example 59] | 61 | – |
| COc1ccc2oc(C)c(C(=O)NC[C@@H]3C[C@H]4CC[C@@H](C3)N4CC(=O)NC(C)(C)C)c2c1 [Example 86] | – | 91 |
| CC(C)(C)NC(=O)CN1[C@@H]2CC[C@H]1C[C@H](CNC(=O)c1ccc(Cl)cc1)C2 [Example 77] | – | 22 |
| Cn1nc(C(C)(C)C)cc1C(=O)NC[C@@H]1C[C@H]2CC[C@@H](C1)N2CC(=O)NC(C)(C)C [Example 69] | 51 | – |
| COc1cc(F)cc(C(=O)NC[C@@H]2C[C@H]3CC[C@@H](C2)N3CC(=O)NC(C)(C)C)c1 [Example 56] | – | 34 |
| Cc1cc(F)cc(C(=O)NC[C@@H]2C[C@H]3CC[C@@H](C2)N3CC(=O)NC(C)(C)C)c1 [Example 55] | 36 | – |
| COc1cc(C)cc(C(=O)NC[C@@H]2C[C@H]3CC[C@@H](C2)N3CC(=O)NC2(C(F)(F)F)CC2)c1 [Example 96] | 58 | – |
| COc1cc(F)c2nc(C[C@@H]3C[C@H]4CC[C@@H](C3)N4CC(=O)NC(C)(C)C)[nH]c2c1 [Example 154] | – | 78 |
| CC(C)(C)NC(=O)CN1[C@@H]2CC[C@H]1C[C@H](CNC(=O)c1ccc(F)cc1)C2 [Example 78] | 44 | – |
| COc1cccc(OC(C)(C)C(=O)NC[C@@H]2C[C@H]3CC[C@@H](C2)N3CC(=O)NC(C)(C)C)c1 [Example 32] | 98 | – |
| CC(C)(C)NC(=O)CN1[C@@H]2CC[C@H]1C[C@H](CNC(=O)C1CCCCC1)C2 [Example 74] | – | 101 |
| COc1cccc2[nH]c(C[C@@H]3C[C@H]4CC[C@@H](C3)N4CC(=O)NC(C)(C)C)nc12 [Example 124] | 96 | – |
| CC(C)(C)NC(=O)CN1[C@@H]2CC[C@H]1C[C@H](CNC(=O)c1cccc(Cl)c1)C2 [Example 52] | 48 | – |
| Cn1cc(C(=O)NC[C@@H]2C[C@H]3CC[C@@H](C2)N3CC(=O)NC(C)(C)C)c2cc(Cl)ccc21 [Example 100, N-[(exo)-8-(tert-Butylcarbamoyl)methyl-8-azabicyclo[3.2.1]octan-3-yl]methyl-5-chloro-1-methyl-1H-indole-3-carboxamide] | 85 | – |
| Cc1oc2c(c1C(=O)NC[C@@H]1C[C@H]3CC[C@@H](C1)N3CC(=O)NC(C)(C)C)CCCC2 [Example 19] | – | 48 |
